Values after ≈ are worked out from the molar mass of the structure shown.
How the values were obtained:
[1] = system: Mycobacterium kansasii; test: Antimycobacterial activity against Mycobacterium kansasii CNCTC My 235/80 after 14 days by micromethod; type: functional; conditions: CNCTC My 235/80, 336 h
[2] = system: Mycobacterium avium; test: Antimycobacterial activity against Mycobacterium avium CNCTC My 330/80 after 21 days by micromethod; type: functional; conditions: CNCTC My 330/80, 504 h
[3] = system: Mycobacterium kansasii; test: Antimycobacterial activity against Mycobacterium kansasii isolate 6509/96 after 21 days by micromethod; type: functional; conditions: isolate 6509/96, 504 h
[4] = system: Mycobacterium kansasii; test: Antimycobacterial activity against Mycobacterium kansasii isolate 6509/96 after 7 days by micromethod; type: functional; conditions: isolate 6509/96, 168 h
[5] = system: Mycobacterium kansasii; test: Antimycobacterial activity against Mycobacterium kansasii isolate 6509/96 after 14 days by micromethod; type: functional; conditions: isolate 6509/96, 336 h
[6] = system: Mycobacterium kansasii; test: Antimycobacterial activity against Mycobacterium kansasii CNCTC My 235/80 after 7 days by micromethod; type: functional; conditions: CNCTC My 235/80, 168 h
[7] = system: Mycobacterium tuberculosis; test: Antimycobacterial activity against Mycobacterium tuberculosis H37Rv CNCTC My 331/88 after 21 days by micromethod; type: functional; conditions: H37Rv CNCTC My 331/88, 504 h
[8] = system: Mycobacterium tuberculosis; test: Antimycobacterial activity against Mycobacterium tuberculosis H37Rv CNCTC My 331/88 after 14 days by micromethod; type: functional; conditions: H37Rv CNCTC My 331/88, 336 h
[9] = system: Mycobacterium avium; test: Antimycobacterial activity against Mycobacterium avium CNCTC My 330/80 after 14 days by micromethod; type: functional; conditions: CNCTC My 330/80, 336 h
[10] = system: Mycobacterium kansasii; test: Antimycobacterial activity against Mycobacterium kansasii CNCTC My 235/80 after 21 days by micromethod; type: functional; conditions: CNCTC My 235/80, 504 h
[11] = system: CHO-K1; test: Cytotoxicity against CHOK1 cells after 24 hrs by MTT assay; type: cell-based; conditions: Cricetulus griseus, CHO-K1, 24 h

| Structure (SMILES) | MIC99 [1] | MIC99 [2] | MIC99 [3] | MIC99 [4] | MIC99 [5] | MIC99 [6] | MIC99 [7] | MIC99 [8] | MIC99 [9] | MIC99 [10] | IC50 [11] |
| --- | --- | --- | --- | --- | --- | --- | --- | --- | --- | --- | --- |
| O=[N+]([O-])c1cc(-c2nnn(Cc3cc(F)cc(F)c3)n2)cc([N+](=O)[O-])c1 | 2 µM (≈ 0.725 µg/mL) | 16 µM (≈ 5.8 µg/mL) | 4 µM (≈ 1.45 µg/mL) | 1 µM (≈ 0.362 µg/mL) | 2 µM (≈ 0.725 µg/mL) | 1 µM (≈ 0.362 µg/mL) | 5 µM (≈ 1.81 µg/mL) | 0.25 µM (≈ 0.0906 µg/mL) | 8 µM (≈ 2.9 µg/mL) | 4 µM (≈ 1.45 µg/mL) | – |
| O=[N+]([O-])c1cc(-c2nnn(CCCCSc3nnnn3-c3ccc(Cl)c(Cl)c3)n2)cc([N+](=O)[O-])c1 | 1 µM (≈ 0.537 µg/mL) | 4 µM (≈ 2.15 µg/mL) | 1 µM (≈ 0.537 µg/mL) | 0.5 µM (≈ 0.269 µg/mL) | 1 µM (≈ 0.537 µg/mL) | 0.5 µM (≈ 0.269 µg/mL) | 0.25 µM (≈ 0.134 µg/mL) | 0.25 µM (≈ 0.134 µg/mL) | 2 µM (≈ 1.07 µg/mL) | 1 µM (≈ 0.537 µg/mL) | – |
| O=[N+]([O-])c1cc(-c2nnn(CCCCSc3nnnn3-c3ccc(Br)cc3)n2)cc([N+](=O)[O-])c1 | 1 µM (≈ 0.547 µg/mL) | 1 µM (≈ 0.547 µg/mL) | 2 µM (≈ 1.09 µg/mL) | 1 µM (≈ 0.547 µg/mL) | 1 µM (≈ 0.547 µg/mL) | 0.5 µM (≈ 0.274 µg/mL) | 0.5 µM (≈ 0.274 µg/mL) | 0.5 µM (≈ 0.274 µg/mL) | 1 µM (≈ 0.547 µg/mL) | 1 µM (≈ 0.547 µg/mL) | – |
| CCCCCCCCCCCCCCCCn1nnnc1SCn1nnc(-c2cc([N+](=O)[O-])cc([N+](=O)[O-])c2)n1 | 32 µM (≈ 18.4 µg/mL) | 250 µM (≈ 144 µg/mL) | 32 µM (≈ 18.4 µg/mL) | 8 µM (≈ 4.6 µg/mL) | 16 µM (≈ 9.2 µg/mL) | 16 µM (≈ 9.2 µg/mL) | 8 µM (≈ 4.6 µg/mL) | 4 µM (≈ 2.3 µg/mL) | 125 µM (≈ 71.8 µg/mL) | 32 µM (≈ 18.4 µg/mL) | – |
| COc1ccccc1-n1nnnc1Sc1cc([N+](=O)[O-])cc([N+](=O)[O-])c1 | 32 µM (≈ 12 µg/mL) | 32 µM (≈ 12 µg/mL) | 32 µM (≈ 12 µg/mL) | 8 µM (≈ 2.99 µg/mL) | 32 µM (≈ 12 µg/mL) | 16 µM (≈ 5.99 µg/mL) | 8 µM (≈ 2.99 µg/mL) | 4 µM (≈ 1.5 µg/mL) | 16 µM (≈ 5.99 µg/mL) | 62.5 µM (≈ 23.4 µg/mL) | – |
| O=[N+]([O-])c1cc(-c2nnn(Cc3ccc(Cl)c(Cl)c3)n2)cc([N+](=O)[O-])c1 | 0.5 µM (≈ 0.198 µg/mL) | 8 µM (≈ 3.16 µg/mL) | 0.5 µM (≈ 0.198 µg/mL) | 0.25 µM (≈ 0.0988 µg/mL) | 0.5 µM (≈ 0.198 µg/mL) | 0.25 µM (≈ 0.0988 µg/mL) | 0.125 µM (≈ 0.0494 µg/mL) | 0.125 µM (≈ 0.0494 µg/mL) | 4 µM (≈ 1.58 µg/mL) | 1 µM (≈ 0.395 µg/mL) | 37 µM |
| COc1ccccc1-n1nnnc1SCn1nnc(-c2cc([N+](=O)[O-])cc([N+](=O)[O-])c2)n1 | 32 µM (≈ 14.6 µg/mL) | 32 µM (≈ 14.6 µg/mL) | 32 µM (≈ 14.6 µg/mL) | 32 µM (≈ 14.6 µg/mL) | 32 µM (≈ 14.6 µg/mL) | 32 µM (≈ 14.6 µg/mL) | 0.25 µM (≈ 0.114 µg/mL) | 0.25 µM (≈ 0.114 µg/mL) | 32 µM (≈ 14.6 µg/mL) | 32 µM (≈ 14.6 µg/mL) | – |
| O=[N+]([O-])c1cc(-c2nnn(CCSc3nnnn3-c3ccc(Cl)c(Cl)c3)n2)cc([N+](=O)[O-])c1 | 0.5 µM (≈ 0.255 µg/mL) | 4 µM (≈ 2.04 µg/mL) | 1 µM (≈ 0.509 µg/mL) | 0.5 µM (≈ 0.255 µg/mL) | 1 µM (≈ 0.509 µg/mL) | 0.25 µM (≈ 0.127 µg/mL) | 0.25 µM (≈ 0.127 µg/mL) | 0.25 µM (≈ 0.127 µg/mL) | 2 µM (≈ 1.02 µg/mL) | 1 µM (≈ 0.509 µg/mL) | – |
| O=[N+]([O-])c1cc(Sc2nnnn2-c2ccccc2)cc([N+](=O)[O-])c1 | 8 µM (≈ 2.75 µg/mL) | 16 µM (≈ 5.51 µg/mL) | 8 µM (≈ 2.75 µg/mL) | 4 µM (≈ 1.38 µg/mL) | 8 µM (≈ 2.75 µg/mL) | 8 µM (≈ 2.75 µg/mL) | 4 µM (≈ 1.38 µg/mL) | 2 µM (≈ 0.689 µg/mL) | 16 µM (≈ 5.51 µg/mL) | 16 µM (≈ 5.51 µg/mL) | – |
| Cn1nnc(-c2cc([N+](=O)[O-])cc([N+](=O)[O-])c2)n1 | 125 µM (≈ 31.3 µg/mL) | 125 µM (≈ 31.3 µg/mL) | 62.5 µM (≈ 15.6 µg/mL) | 62.5 µM (≈ 15.6 µg/mL) | 62.5 µM (≈ 15.6 µg/mL) | 62.5 µM (≈ 15.6 µg/mL) | 32 µM (≈ 8.01 µg/mL) | 32 µM (≈ 8.01 µg/mL) | 62.5 µM (≈ 15.6 µg/mL) | 125 µM (≈ 31.3 µg/mL) | – |
| CCCn1nnc(-c2cc([N+](=O)[O-])cc([N+](=O)[O-])c2)n1 | 32 µM (≈ 8.9 µg/mL) | 62.5 µM (≈ 17.4 µg/mL) | 32 µM (≈ 8.9 µg/mL) | 16 µM (≈ 4.45 µg/mL) | 32 µM (≈ 8.9 µg/mL) | 16 µM (≈ 4.45 µg/mL) | 16 µM (≈ 4.45 µg/mL) | 8 µM (≈ 2.23 µg/mL) | 32 µM (≈ 8.9 µg/mL) | 32 µM (≈ 8.9 µg/mL) | – |
| COc1ccc(-n2nnnc2Sc2cc([N+](=O)[O-])cc([N+](=O)[O-])c2)cc1 | 4 µM (≈ 1.5 µg/mL) | 16 µM (≈ 5.99 µg/mL) | 4 µM (≈ 1.5 µg/mL) | 2 µM (≈ 0.749 µg/mL) | 4 µM (≈ 1.5 µg/mL) | 2 µM (≈ 0.749 µg/mL) | 1 µM (≈ 0.374 µg/mL) | 1 µM (≈ 0.374 µg/mL) | 8 µM (≈ 2.99 µg/mL) | 4 µM (≈ 1.5 µg/mL) | – |
| O=[N+]([O-])c1cc(-c2nnnn2Cc2ccc(Cl)cc2)cc([N+](=O)[O-])c1 | 16 µM (≈ 5.77 µg/mL) | 16 µM (≈ 5.77 µg/mL) | 8 µM (≈ 2.89 µg/mL) | 4 µM (≈ 1.44 µg/mL) | 8 µM (≈ 2.89 µg/mL) | 8 µM (≈ 2.89 µg/mL) | 4 µM (≈ 1.44 µg/mL) | 4 µM (≈ 1.44 µg/mL) | 16 µM (≈ 5.77 µg/mL) | 16 µM (≈ 5.77 µg/mL) | – |
| O=[N+]([O-])c1cc(-c2nnn(CCCSc3nnnn3-c3ccc(Cl)c(Cl)c3)n2)cc([N+](=O)[O-])c1 | 0.5 µM (≈ 0.262 µg/mL) | 8 µM (≈ 4.19 µg/mL) | 0.5 µM (≈ 0.262 µg/mL) | 0.25 µM (≈ 0.131 µg/mL) | 0.5 µM (≈ 0.262 µg/mL) | 0.25 µM (≈ 0.131 µg/mL) | 0.25 µM (≈ 0.131 µg/mL) | 0.25 µM (≈ 0.131 µg/mL) | 4 µM (≈ 2.09 µg/mL) | 0.5 µM (≈ 0.262 µg/mL) | – |

From ChEMBL document CHEMBL4011590, “Structure-activity relationship studies on 3,5-dinitrophenyl tetrazoles as antitubercular agents” (Eur J Med Chem, 2017)
